The target in series [1] is T1, OCT2 over OCT3, MATE1 and MATE2K (Homo sapiens, UniProt O15244).
T1 sequence (O15244 1-555): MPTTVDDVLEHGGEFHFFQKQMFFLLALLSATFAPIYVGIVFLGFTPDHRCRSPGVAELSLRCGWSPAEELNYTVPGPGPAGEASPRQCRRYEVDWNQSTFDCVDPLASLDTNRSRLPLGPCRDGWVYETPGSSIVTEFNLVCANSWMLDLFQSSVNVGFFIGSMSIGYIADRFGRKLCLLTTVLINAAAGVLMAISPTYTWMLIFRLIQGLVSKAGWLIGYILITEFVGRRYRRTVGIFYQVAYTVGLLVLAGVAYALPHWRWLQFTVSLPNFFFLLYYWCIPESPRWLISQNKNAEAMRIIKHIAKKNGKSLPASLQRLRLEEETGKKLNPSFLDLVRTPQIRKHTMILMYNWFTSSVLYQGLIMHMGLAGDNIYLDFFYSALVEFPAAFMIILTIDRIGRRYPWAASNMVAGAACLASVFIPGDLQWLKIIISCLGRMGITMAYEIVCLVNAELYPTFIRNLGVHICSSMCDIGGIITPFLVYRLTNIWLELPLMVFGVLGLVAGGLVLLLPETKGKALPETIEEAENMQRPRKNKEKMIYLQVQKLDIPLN
Put plainly: Inhibition of OCT2-mediated oxaliplatin transport in 100% human serum or HBSS containing 4% BSA (IC50,app). The settings on record: human, MDCK-II cells transfected with human transporters, selectivity between OCT2 and OCT3, MATE1 and MATE2K, oxaliplatin transport.
From the text: Fully confluent MDCK cell monolayers were transfected with either cDNA plasmids encoding the human transporter to be tested or a GFP control. […] The cells were then washed with ice-cold PBS and lysed with 50:50 acetonitrile:H2O. Intracellular content of the substrate was quantified by LC/MS/MS or a MicroBeta radiometric plate reader.

The conditions of series [2]: human, in vivo.
The conditions of series [3]: 14-week toxicity study in monkey, females, PMDA 2012, cited from earlier work.
Series [4] deals with male wistar rats treated with cisplatin. Put plainly: Cisplatin nephrotoxicity in Wistar rats (Example 9). The series is classed as in vivo, rat. Particulars: co-administration with cisplatin 11 mg/kg IV; 72 hrs post treatment; expected.
Series [5] is described as follows: Plasma levels of buflomedil and oxaliplatin in the chronic model. Type of series: in vivo, mouse. Particulars: 15 minutes after the 8th cycle. The method, then: At baseline (before drug treatment) and at the end of treatment, caudal nerve conduction study (NCS), behavioral tests (Dynamic and Cold Plate), histopathology study were performed. Serum samples were collected at the end of treatment.

The test system of series [6] is Balb/c mice exposed to chronic treatment with Oxaliplatin. Nature of the series: Dynamic Plantar Aesthesiometer Test in chronic oxaliplatin neuropathy model. The settings on record: for mechanical allodynia, Dynamic Aesthesiometer Test at the end of treatment: OXA 3.5 mg/kg iv, 8 cycles ± BFMD 30 mg/kg ip + 15 mg/kg iv. Type of series: in vivo, mouse. The method, then: The Dynamic Plantar Aesthesiometer Test was used to determine the alterations in mechanical pain perception and their changes due to pharmacological treatment. Mice were accustomed to the device 3 days before performing the tests after a 1 hour acclimatization period followed by testing. The mechanical nociceptive threshold was assessed using a Dynamic Aesthesiometer Test (model 37450, Ugo Basile Biological Instruments, Comerio. Italy), which generated a linearly increasing mechanical force. At each time point, after the acclimatization period, a servo-controlled mechanical stimulus (a pointed metallic filament, 0.5-mm diameter) was applied to the plantar surface of the hind paw, which exerted a progressively increasing punctuate pressure, reaching up to 15 g within 15 seconds. The pressure evoking a clear voluntary hind-paw withdrawal response was recorded automatically and taken as representing the mechanical nociceptive threshold index. The mechanical threshold was always assessed alternatively on each side every 2 minutes on 3 occasions to yield a mean value. The results represent the maximal pressure (expressed in grams) tolerated by the animals. There was an upper limit cutoff of 30 seconds, after which the mechanical stimulus was automatically terminated.

Series [7] deals with OCT2 and MATE1. Nature of the series: Buflomedil inhibition of OCT2 and MATE1 with cisplatin or oxaliplatin as substrate (FIG. 15B). The series is classed as cell-based, human.
Series [8] has as its system Balb/c mice exposed to chronic treatment with Oxaliplatin. Put plainly: Sciatic nerve histology, g-ratio, in chronic oxaliplatin neuropathy model. Particulars: OXA 3.5 mg/kg iv, 8 cycles ± BFMD 30 mg/kg ip + 15 mg/kg iv. Type of series: in vivo, mouse. The method, then:
After completion of behavioral and electrophysiological analysis, animals were killed and sciatic nerves were dissected, fixed, stained for myelin and cut as semithin sections. Light microscopy was performed to capture an image of the entire nerve which was then subjected to semi-automatic software-based nerve morphometry in order to assess axon diameter and myelin thickness 20.
To assess changes in nerve cell myelination, we calculated the g ratio of nerve fibers (g-ratio denominates the numerical ratio between the diameter of the axon and the outer diameter of the myelinated fiber; hypomyelination in sciatic nerves, which is associated with platinum neurotoxicity (Boehmerle, W., et al. Sci. Rep. 4, 6370), would thus cause an increase of the g-ratio).

Series [9] has the same test system. Put plainly: Morphometry and histopathology of DRG neurons in chronic oxaliplatin neuropathy model. Type of series: in vivo, mouse. Particulars: for area of DRG neuron cell bodies and nucleoli (morphometry): OXA 3.5 mg/kg iv twice a week for 4 weeks (8 cycles) ± BFMD 30 mg/kg ip + 15 mg/kg iv. From the text:
The investigator was blind to the nerve and DRG conditions for these analyses. Three animals from each group were sacrificed four days after the last oxaliplatin dose. The left sciatic nerves and the L4-L5 DRGs were harvested and processed following previously reported protocols, resin embedded and sectioned for light and electron microscope analysis. For the light microscopy analysis, 1 μm semithin sections were stained with toluidine blue and examined using a Nikon Eclipse E200 light microscope (Nikon, Firenze, Italy). For the electron microscopy analysis, ultrathin sections (80 nm) counterstained with uranyl acetate and lead citrate, were examined with a Philips CM 10 transmission electron microscope (Philips, Eindhoven, Netherlands).
The investigator was blind to the experimental conditions of the tissue for these experiments. One micron thick semithin sections stained with toluidine blue were used for morphometric examination of the DRGs from control (n=3) and oxaliplatin-treated mice (n=3). (Renn et al. Molecular Pain 2011, 7:29). Only the cells where the nucleolus was included in the section plane of 50 μm-spaced out sections were considered to avoid the overlapping of the same cell bodies and they were analyzed with computer-assisted image analysis (ImageJ, NIH) to measure the soma and nucleolus size of at least 300 DRG neurons per mouse.

A short description of series [10]: Mortality, clinical observations and body weight in the chronic model. Type of series: in vivo, mouse. Particulars: BFMD 30 mg/kg ip + 15 mg/kg iv ± OXA 3.5 mg/kg iv, twice a week for 4 weeks; n=12/group.

Entries after “also recorded” stand apart in the source; their conditions may differ.

Take `Clc1ccc(COC(Cn2ccnc2)c2ccc(Cl)cc2Cl)c(Cl)c1` (stereo not drawn) [Miconazole]: the selectivity ratio in series [1] was > 10. Moreover, the “Plasma peak unbound concentration Cmax,u” value in series [2] worked out at 1.19 µM.
For orientation: Cmax means the peak of the concentration-time curve. On to `C[C@@H]1CCO[C@H]2Cn3cc(C(=O)NCc4ccc(F)cc4F)c(=O)c(O)c3C(=O)N12` [Dolutegravir], for which the “mean plasma Cmax at the NOAEL dose” value in series [3] was 23500 ng/mL. The Cmax in [3] (read-out: mean plasma Cmax at the NOAEL dose) is 54.8 µM.
For `COc1cc(OC)c(C(=O)CCCN2CCCC2)c(OC)c1` [Buflomedil, 4-pyrrolidin-1-yl-1-(2,4,6-trimethoxyphenyl)butan-1-one], the “serum BUN values” in series [4] is listed as “lowers the BUN values”. Also, the “pharmacokinetic interaction between BFMD and OXA (plasma levels)” value in series [5] is “No pharmacokinetic interaction was observed”. Further, in series [5] (BFMD 30 mg/kg ip + 15 mg/kg iv), the “plasma level at the end of the study” value is > 1720 ng/mL. For the same compound, the “mechanical allodynia, Dynamic Aesthesiometer Test at the end of treatment” value is recorded as “only the groups treated with OXA alone showed the development of mechanical allodynia” in series [6] (listed as BFMD) and “effective on preventing mechanical allodynia” in [6] (listed as buflomedil). For the same compound, the “mechanical allodynia (mechanical pain threshold)” value in [6] (buflomedil 80 mg/kg po 2 hours before OXA, 8 cycles, n=3/group) was “effective on reducing mechanical (FIG. 30A) and cold (FIG. 30B) allodynia; also recorded: showed protective effects against OXAIPN”. Besides, the “difference in IC50s between oxaliplatin and cisplatin as substrate (OCT2 or MATE1)” value in [7] was “nearly identical IC50s; also recorded: no/minimal difference in its IC50s”. Further, the “selectivity toward OCT2 over MATE1, cisplatin or oxaliplatin as substrate” value in series [7] is on record as “great selectivity toward OCT2”. The “sciatic nerve G-ratio (hypomyelination)” value in series [8] (listed as BFMD) is on record as “reduction in G-ratio of the OXA+BFMD group vs OXA group”; in [8] (listed as buflomedil), “effective on reducing sciatic nerve damage”. In addition, the entries for the “area of DRG neuron cell bodies and nucleoli (morphometry)” value in [9] (listed as BFMD) and in series [9] (listed as buflomedil) were “nearly completely prevented OXA's induced DRG neuronal injury; also recorded: no difference from the CTRL group” and “effective on preventing dorsal root ganglion (DRG) nerve cell injury”, respectively. For the same compound, in series [9] (OXA 3.5 mg/kg iv, 8 cycles ± BFMD 30 mg/kg ip + 15 mg/kg iv), the “DRG histopathology (light and electron microscopy)” value is “look clearly similar to the control”. For the same compound, the mortality result in series [10] is “Two animals (BFMD and OXA+BFMD groups) died after the first administration; also recorded: one animal (OXA+BFMD group) died after the last administration”.
